pIC50, pKi: −log10 of the molar value.
Tests used:
[1] = molecular target: 5-HT2C receptor (Homo sapiens (Human), UniProt P28335); test: HTRF IP-One antagonist assay, 5-HT2C; format: cell-based; details: HEK293 cells stably expressing recombinant human receptor; IP accumulation with 80 nM 5-HT
Experimental: (§1) HEK293 cells stably expressing 5-HT2 receptors were generated using standard procedures. Cells were dilution cloned and clonal cell lines stably expressing the receptors at low levels were selected for pharmacology studies. In radioligand binding studies using a variety of radiolabeled probes, receptor densities in the 2A, 2B and 2C cell lines were estimated to be 50-70, 150-200, and 10-20 fmol/mg, respectively.
(§2) Inositol phosphate accumulation assays were performed using the HTRF IP-One assay system developed by Cisbio and generally followed the manufacturer's instructions. Briefly, HEK293 cells stably expressing recombinant human receptors were harvested and resuspended in phenol-red free OptiMEM (ThermoFisher), plated into 384-well assay plates (Perkin Elmer, ProxiPlate-Plus® Cat #6008280) at 10,000 cells/well in a volume of 10 μL/well, and incubated overnight at 37° C., 5% CO2. Test compounds were solubilized and serially diluted in DMSO, and then diluted into Assay Buffer (Tris HCl 20 mM, NaCl 150 mM, LiCl 40 mM, pargyline 25 μM, pH 8) containing 80 nM 5-HT. Test compounds were added to the cells (4 μL/well addition, maximal final assay concentration typically 10 μM) and plates, incubated for 2 hrs at 37° C./5% CO2 and then removed from the incubator and allowed to cool to room temperature for 30 minutes prior to addition of IP-One detection reagents. IP-One detection reagents (6 μL/well) were added and plates incubated for 1 hr at room temperature before reading on an HTRF compatible reader such as a Perkin Elmer EnVision® or BMG PheraStar®. Dose-response experiments utilized 10-point curves, typically starting at 10 μM, with 5-fold serial dilutions. Experiments were performed with triplicate data points and independent replicate experiments were performed to ensure data consistency.

[2] = molecular target: T1, 5-HT2A receptor (Homo sapiens (Human), UniProt P28223); test: Radioligand binding assay ([3H]5-HT competition), 5-HT2A; details: [3H]5-HT radioligand, membranes of HEK293 cells expressing recombinant 5-HT2A; Ki from IC50 by Cheng-Prusoff; read-out: 5-HT2A serotonin binding Ki value
T1 sequence (P28223 whole entry): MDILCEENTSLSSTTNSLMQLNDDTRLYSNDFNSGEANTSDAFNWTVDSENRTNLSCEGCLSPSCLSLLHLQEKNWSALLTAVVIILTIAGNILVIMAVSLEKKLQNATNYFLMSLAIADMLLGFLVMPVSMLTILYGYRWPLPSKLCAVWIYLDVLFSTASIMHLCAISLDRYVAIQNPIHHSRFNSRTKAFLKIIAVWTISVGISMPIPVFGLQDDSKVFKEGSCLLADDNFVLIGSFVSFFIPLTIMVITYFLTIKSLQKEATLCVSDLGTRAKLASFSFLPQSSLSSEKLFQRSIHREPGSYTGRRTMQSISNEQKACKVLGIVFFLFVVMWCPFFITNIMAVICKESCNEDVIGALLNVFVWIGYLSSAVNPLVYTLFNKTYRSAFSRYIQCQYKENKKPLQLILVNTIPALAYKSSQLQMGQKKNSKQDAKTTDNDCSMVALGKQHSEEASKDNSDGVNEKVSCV

[3] = molecular target: T1, 5-HT2A receptor; test: HTRF IP-One antagonist assay, 5-HT2A; format: cell-based; details: HEK293 cells stably expressing recombinant human receptor; IP accumulation with 80 nM 5-HT
Experimental: as §1, §2

[4] = molecular target: 5-HT2B receptor (Homo sapiens (Human), UniProt P41595); test: HTRF IP-One antagonist assay, 5-HT2B; format: cell-based; details: HEK293 cells stably expressing recombinant human receptor; IP accumulation with 80 nM 5-HT
Sequence of 5-HT2B receptor (P41595 whole entry): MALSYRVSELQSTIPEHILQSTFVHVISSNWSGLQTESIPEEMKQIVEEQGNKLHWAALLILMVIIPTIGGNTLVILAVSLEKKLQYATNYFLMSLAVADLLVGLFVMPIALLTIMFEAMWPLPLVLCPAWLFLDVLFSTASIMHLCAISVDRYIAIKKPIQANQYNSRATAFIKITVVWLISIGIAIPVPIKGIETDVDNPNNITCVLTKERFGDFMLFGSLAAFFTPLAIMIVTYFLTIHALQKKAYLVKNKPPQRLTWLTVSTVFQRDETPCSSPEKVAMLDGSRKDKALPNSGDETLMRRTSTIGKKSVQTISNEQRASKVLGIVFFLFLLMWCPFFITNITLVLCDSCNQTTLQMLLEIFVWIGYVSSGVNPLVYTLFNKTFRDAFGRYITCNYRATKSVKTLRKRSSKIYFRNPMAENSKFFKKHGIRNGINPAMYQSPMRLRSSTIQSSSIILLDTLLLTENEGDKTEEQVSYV
Experimental: as §1, §2

Sequence of 5-HT2C receptor (P28335 33-458): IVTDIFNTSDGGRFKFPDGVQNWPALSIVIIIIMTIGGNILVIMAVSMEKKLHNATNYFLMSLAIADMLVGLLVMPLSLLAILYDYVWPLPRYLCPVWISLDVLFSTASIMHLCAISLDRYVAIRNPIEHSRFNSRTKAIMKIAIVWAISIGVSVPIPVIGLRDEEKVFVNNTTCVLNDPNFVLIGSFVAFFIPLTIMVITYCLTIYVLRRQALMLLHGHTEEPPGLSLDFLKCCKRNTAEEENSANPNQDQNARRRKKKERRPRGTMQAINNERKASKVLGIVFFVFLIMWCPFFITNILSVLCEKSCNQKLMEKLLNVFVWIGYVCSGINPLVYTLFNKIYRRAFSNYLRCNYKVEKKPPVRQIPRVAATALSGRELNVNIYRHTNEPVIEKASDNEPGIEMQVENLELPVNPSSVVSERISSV

SMILES | pIC50 [1] | pKi [2] | pIC50 [3] | pIC50 [4]
Cc1noc(C)c1-c1cc(NC(=O)c2cccn2C)ccc1OC[C@H]1CCCCN1 [Compound 189, (R)—N-(3-(3,5-dimethylisoxazol-4-yl)-4-(piperidin-2-ylmethoxy)phenyl)-1-methyl-1H-pyrrole-2-carboxamide] | ≤ 4.00 | 8.41 | 7.60 | ≤ 4.00
Cc1noc(C)c1-c1cc(NC(=O)[C@H]2C[C@H]2F)ccc1OC[C@H]1CCCCN1 [Compound 191, (1R,2R)—N-(3-(3,5-dimethylisoxazol-4-yl)-4-(((R)-piperidin-2-yl)methoxy)phenyl)-2-fluorocyclopropane-1-carboxamide] | ≤ 4.00 | 8.12 | 7.22 | ≤ 4.00
Cc1ncoc1C(=O)Nc1ccc(OC[C@H]2CCCCN2)c(-c2c(C)noc2C)c1 [Compound 196, (R)—N-(3-(3,5-dimethylisoxazol-4-yl)-4-(piperidin-2-ylmethoxy)phenyl)-4-methyloxazole-5-carboxamide] | ≤ 4.00 | 7.99 | 7.35 | ≤ 4.00
COCCNCCOc1ccc(NC(=O)C2CC2)cc1-c1c(C)noc1C [Compound 197, N-[3-(3,5-dimethylisoxazol-4-yl)-4-[2-(2-methoxyethylamino)ethoxy]phenyl]cyclopropanecarboxamide] | ≤ 4.00 | 8.97 | 8.31 | ≤ 4.00
CC(=N)NCCOc1ccc(NC(=O)C2CC2)cc1-c1c(C)noc1C [Compound 198, N-(4-(2-acetimidamidoethoxy)-3-(3,5-dimethylisoxazol-4-yl)phenyl)cyclopropanecarboxamide] | 5.43 | 8.27 | 7.64 | ≤ 4.00
Cc1noc(C)c1-c1cc(NC(=O)c2ccccc2)ccc1OC[C@H]1CCCCN1 [Compound 218, (R)—N-(3-(3,5-dimethylisoxazol-4-yl)-4-(piperidin-2-ylmethoxy)phenyl)benzamide] | ≤ 4.00 | 8.31 | 7.66 | ≤ 4.00
Cc1noc(C)c1-c1cc(NC(=O)c2ccc(F)cc2)ccc1OC[C@H]1CCCCN1 [Compound 219, (R)—N-(3-(3,5-dimethylisoxazol-4-yl)-4-(piperidin-2-ylmethoxy)phenyl)-4-fluorobenzamide] | ≤ 4.00 | 8.53 | 7.98 | ≤ 4.00
COc1cccc(C(=O)Nc2ccc(OC[C@H]3CCCCN3)c(-c3c(C)noc3C)c2)c1 [Compound 220, (R)—N-(3-(3,5-dimethylisoxazol-4-yl)-4-(piperidin-2-ylmethoxy)phenyl)-3-methoxybenzamide] | ≤ 4.00 | 9.04 | 8.59 | ≤ 4.00
Cc1noc(C)c1-c1cc(NC(=O)Cc2ccccc2)ccc1OC[C@H]1CCCCN1 [Compound 221, (R)—N-(3-(3,5-dimethylisoxazol-4-yl)-4-(piperidin-2-ylmethoxy)phenyl)-2-phenylacetamide] | ≤ 4.00 | 8.37 | 7.75 | ≤ 4.00
COc1cccc(CC(=O)Nc2ccc(OC[C@H]3CCCCN3)c(-c3c(C)noc3C)c2)c1 [Compound 222, (R)—N-(3-(3,5-dimethylisoxazol-4-yl)-4-(piperidin-2-ylmethoxy)phenyl)-2-(3-methoxyphenyl)acetamide] | ≤ 4.00 | 8.33 | 7.27 | ≤ 4.00
Cc1noc(C)c1-c1cc(NC(=O)Cc2cccc(F)c2)ccc1OC[C@H]1CCCCN1 [Compound 223, (R)—N-(3-(3,5-dimethylisoxazol-4-yl)-4-(piperidin-2-ylmethoxy)phenyl)-2-(3-fluorophenyl)acetamide] | ≤ 4.00 | 8.77 | 7.83 | ≤ 4.00
Cc1noc(C)c1-c1cc(NC(=O)Cc2cncc(F)c2)ccc1OC[C@H]1CCCCN1 [Compound 226, (R)—N-(3-(3,5-dimethylisoxazol-4-yl)-4-(piperidin-2-ylmethoxy)phenyl)-2-(5-fluoropyridin-3-yl)acetamide] | ≤ 4.00 | 7.98 | 7.96 | ≤ 4.00
CCOC1CC1C(=O)Nc1ccc(OC[C@H]2CCCCN2)c(-c2c(C)noc2C)c1 (stereo partly drawn) [Compound 229, N-(3-(3,5-dimethylisoxazol-4-yl)-4-(((R)-piperidin-2-yl)methoxy)phenyl)-2-ethoxycyclopropane-1-carboxamide] | ≤ 4.00 | 8.33 | 7.68 | ≤ 4.00
Cc1nonc1C(=O)Nc1ccc(OC[C@H]2CCCCN2)c(-c2c(C)noc2C)c1 [Compound 232, (R)—N-(3-(3,5-dimethylisoxazol-4-yl)-4-(piperidin-2-ylmethoxy)phenyl)-4-methyl-1,2,5-oxadiazole-3-carboxamide] | ≤ 4.00 | 8.41 | 7.61 | ≤ 4.00
Cc1noc(C)c1-c1cc(NC(=O)Cc2ccns2)ccc1OC[C@H]1CCCCN1 [Compound 233, (R)—N-(3-(3,5-dimethylisoxazol-4-yl)-4-(piperidin-2-ylmethoxy)phenyl)-2-(isothiazol-5-yl)acetamide] | ≤ 4.00 | 8.79 | 8.02 | ≤ 4.00
Cc1noc(C)c1-c1cc(NC(=O)Cc2cnsc2)ccc1OC[C@H]1CCCCN1 [Compound 234, (R)—N-(3-(3,5-dimethylisoxazol-4-yl)-4-(piperidin-2-ylmethoxy)phenyl)-2-(isothiazol-4-yl)acetamide] | ≤ 4.00 | 9.18 | 8.62 | ≤ 4.00
Cc1noc(C)c1-c1cc(NC(=O)C2(F)CC2)ccc1O[C@@H]1CCNC1 [Compound 238, (R)—N-(3-(3,5-dimethylisoxazol-4-yl)-4-(pyrrolidin-3-yloxy)phenyl)-1-fluorocyclopropane-1-carboxamide] | ≤ 4.00 | 8.44 | 7.34 | ≤ 4.00
Cc1noc(C)c1-c1cc(NC(=O)c2c(F)cnn2C)ccc1OC1CNC1 [Compound 240, N-(4-(azetidin-3-yloxy)-3-(3,5-dimethylisoxazol-4-yl)phenyl)-4-fluoro-1-methyl-1H-pyrazole-5-carboxamide] | ≤ 4.00 | 8.87 | 7.75 | ≤ 4.00
Cc1noc(C)c1-c1cc(NC(=O)c2ccccc2)ccc1OC1CNC1 [Compound 241, N-(4-(azetidin-3-yloxy)-3-(3,5-dimethylisoxazol-4-yl)phenyl)benzamide] | ≤ 4.00 | 8.16 | 7.46 | ≤ 4.00
Cc1noc(C)c1-c1cc(NC(=O)c2ccc(F)cc2)ccc1OC1CNC1 [Compound 242, N-(4-(azetidin-3-yloxy)-3-(3,5-dimethylisoxazol-4-yl)phenyl)-4-fluorobenzamide] | 5.31 | 8.68 | 7.35 | 5.47
Cc1noc(C)c1-c1cc(NC(=O)c2cccc(F)c2)ccc1OC1CNC1 [Compound 243, N-(4-(azetidin-3-yloxy)-3-(3,5-dimethylisoxazol-4-yl)phenyl)-3-fluorobenzamide] | 5.21 | 8.97 | 7.78 | ≤ 4.00
COc1cccc(C(=O)Nc2ccc(OC3CNC3)c(-c3c(C)noc3C)c2)c1 [Compound 244, N-(4-(azetidin-3-yloxy)-3-(3,5-dimethylisoxazol-4-yl)phenyl)-3-methoxybenzamide] | ≤ 4.00 | 9.07 | 7.72 | ≤ 4.00
Cc1noc(C)c1-c1cc(NC(=O)C2(F)CC2)ccc1OC1CNC1 [Compound 245, N-(4-(azetidin-3-yloxy)-3-(3,5-dimethylisoxazol-4-yl)phenyl)-1-fluorocyclopropane-1-carboxamide] | ≤ 4.00 | 8.69 | 7.42 | ≤ 4.00

Reference: patent US20240376090A1, “ISOXAZOLE DERIVATIVES AS MODULATORS OF THE 5-HT2A SEROTONIN RECEPTOR USEFUL FOR THE TREATMENT OF DISORDERED RELATED THERETO” (Arena Pharmaceuticals, Inc., priority 2020, published 2024)
